# Reference: paper PMC8253220, “Molecular design, synthesis and in vitro biological evaluation of thienopyrimidine–hydroxamic acids as chimeric kinase HDAC inhibitors: a challenging approach to combat cancer” (Journal of Enzyme Inhibition and Medicinal Chemistry, 2021)
# Where “and” joins values, the source holds several entries; their conditions need not be identical. Equal values may be shown once.
# How the values were obtained:
# Test in all cases: NCI one-dose screen
# Format in all cases: cell-based, human
# DU-145 = details: Prostate DU-145, 10 µM single dose
# How it was run: (§1)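 At 10 μM, a single concentration, compounds were evaluated for antiproliferative effect in the NCI 60-line screen, with growth expressed relative to untreated control cells.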
# EKVX = details: NSCLC EKVX, 10 µM single dose
# How it was run: (§2)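 In vitro antiproliferative testing: NCI-60 panel, initial single dose 10 μM, inhibition % derived from percent growth of treated versus untreated control cells.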
# HL-60(TB) = details: Leukemia HL-60(TB), 10 µM single dose
# How it was run: as §1
# A549/ATCC = details: NSCLC A549/ATCC, 10 µM single dose
# How it was run: as §1
# ACHN = details: Renal ACHN, 10 µM single dose
# How it was run: as §1
# SK-MEL-28 = details: Melanoma SK-MEL-28, 10 µM single dose
# How it was run: (§3)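 Compounds were tested at a single dose of 10 μM across the full NCI-60 cell line panel. Growth was expressed as percent growth relative to untreated control cells, reported as percent inhibition.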
# SNB-19 = details: CNS SNB-19, 10 µM single dose
# How it was run: as §3
# MCF7 = details: Breast MCF7, 10 µM single dose
# How it was run: (§4)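 Percent inhibition; single 10 μM dose; NCI-60 cell panel; untreated cells as reference.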
# UACC-62 = details: Melanoma UACC-62, 10 µM single dose
# How it was run: as §1
# LOX IMVI = details: Melanoma LOX IMVI, 10 µM single dose
# How it was run: as §1
# NCI-H460 = details: NSCLC NCI-H460, 10 µM single dose
# How it was run: as §1
# SF-268 = details: CNS SF-268, 10 µM single dose
# How it was run: as §4
# MALME-3M = details: Melanoma MALME-3M, 10 µM single dose
# How it was run: as §1
# SW-620 = details: Colon SW-620, 10 µM single dose
# How it was run: as §3
# NCI/ADR-RES = details: Ovarian NCI/ADR-RES, 10 µM single dose
# How it was run: as §1
# TK-10 = details: Renal TK-10, 10 µM single dose
# How it was run: as §1
# CAKI-1 = details: Renal CAKI-1, 10 µM single dose
# How it was run: as §1
# HOP-62 = details: NSCLC HOP-62, 10 µM single dose
# How it was run: as §3
# U251 = details: CNS U251, 10 µM single dose
# How it was run: as §2
# PC-3 = details: Prostate PC-3, 10 µM single dose
# How it was run: as §3
# BT-549 = details: Breast BT-549, 10 µM single dose
# How it was run: as §1
# OVCAR-3 = details: Ovarian OVCAR-3, 10 µM single dose
# How it was run: as §1
# NCI-H226 = details: NSCLC NCI-H226, 10 µM single dose
# How it was run: as §2
# MDA-MB-231/ATCC = details: Breast MDA-MB-231/ATCC, 10 µM single dose
# How it was run: as §1
# COLO 205 = details: Colon COLO 205, 10 µM single dose
# How it was run: as §1
# NCI-H522 = details: NSCLC NCI-H522, 10 µM single dose
# How it was run: as §2
# RXF 393 = details: Renal RXF 393, 10 µM single dose
# How it was run: as §1
# OVCAR-8 = details: Ovarian OVCAR-8, 10 µM single dose
# How it was run: as §1
# MOLT-4 = details: Leukemia MOLT-4, 10 µM single dose
# How it was run: as §4
# HS 578T = details: Breast HS 578T, 10 µM single dose
# How it was run: as §1
# HCT-116 = details: Colon HCT-116, 10 µM single dose
# How it was run: as §1
# CCRF-CEM = details: Leukemia CCRF-CEM, 10 µM single dose
# How it was run: as §1
# SF-295 = details: CNS SF-295, 10 µM single dose
# How it was run: as §1
# SF-539 = details: for Growth Percent: CNS SF-539, 10 µM single dose
# How it was run: as §4
# SN12C = details: Renal SN12C, 10 µM single dose
# How it was run: as §1
# SR = details: Leukemia SR, 10 µM single dose
# How it was run: as §1
# NCI-H322M = details: NSCLC NCI-H322M, 10 µM single dose
# How it was run: as §1
SMILES,Growth Percent (DU-145),Growth Percent (EKVX),Growth Percent (HL-60(TB)),Growth Percent (A549/ATCC),Growth Percent (ACHN),Growth Percent (SK-MEL-28),Growth Percent (SNB-19),Growth Percent (MCF7),Growth Percent (UACC-62),Growth Percent (LOX IMVI),Growth Percent (NCI-H460),Growth Percent (SF-268),Growth Percent (MALME-3M),Growth Percent (SW-620),Growth Percent (NCI/ADR-RES),Growth Percent (TK-10),Growth Percent (CAKI-1),Growth Percent (HOP-62),Growth Percent (U251),Growth Percent (PC-3),further results
"Cc1c(C(=O)NCCC(=O)NO)sc2ncnc(Nc3ccccc3)c12 [Compound 19b, N-(3-(hydroxyamino)-3-oxopropyl)-5-methyl-4-(phenylamino)thieno[2,3-d]pyrimidine-6-carboxamide]",108.0% and 108.08%,87.3% and 87.34%,103.7%,98.3%,106.3% and 106.37%,107.9% and 107.91%,99.8% and 99.82%,92.3% and 92.31%,95.6% and 95.69%,93.7%,100.8% and 100.82%,97.0%,102.5% and 102.54%,99.6% and 99.64%,97.2% and 97.26%,108.2% and 108.29%,96.2% and 96.21%,100.4% and 100.46%,101.5% and 101.54%,105.1% and 105.18%,Growth Percent (BT-549): 109.1% and 109.16%; Growth Percent (OVCAR-3): 115.3% and 115.34%; Growth Percent (NCI-H226): 89.4% and 89.44%; Growth Percent (MDA-MB-231/ATCC): 101.7% and 101.73%; Growth Percent (COLO 205): 110.7% and 110.74%; Growth Percent (NCI-H522): 90.5% and 90.58%; Growth Percent (RXF 393): 94.1% and 94.17%; Growth Percent (OVCAR-8): 99.4% and 99.45%; Growth Percent (MOLT-4): 107.4% and 107.47%; Growth Percent (HS 578T): 103.8% and 103.85%; Growth Percent (HCT-116): 105.6% and 105.69%; Growth Percent (CCRF-CEM): 101.13%; Growth Percent (SF-295): 91.8% and 91.88%; Growth Percent (SF-539): 93.6% and 93.63%; Growth Percent (SN12C): 98.5% and 98.51%; Growth Percent (SR): 104.5% and 104.58%; Growth Percent (NCI-H322M): 99.0% and 99.06%
"Cc1c(C(=O)NCCCC(=O)NO)sc2ncnc(Nc3ccc(NC(=O)Nc4cccc(C(F)(F)F)c4)cc3)c12 [Compound 12c, 1–(4-(6-((4-(hydroxyamino)-4-oxobutyl)carbamoyl)-5-methylthieno[2,3-d]pyrimidin-4-ylamino)phenyl)-3–(3-(trifluoromethyl)phenyl)urea]",106.6% and 106.64%,100.0% and 100.09%,104.7% and 104.71%,107.3% and 107.34%,105.9% and 105.92%,109.2% and 109.22%,96.8% and 96.88%,95.2% and 95.26%,98.5% and 98.59%,98.1% and 98.14%,101.9% and 101.92%,98.7% and 98.75%,116.7% and 116.65%,109.4% and 109.44%,99.2% and 99.22%,117.7% and 117.79%,100.6% and 100.67%,103.3%,87.3% and 87.39%,111.1% and 111.12%,"Growth Percent (BT-549): 118.8% and 118.81%; Growth Percent (OVCAR-3): 117.8% and 117.86%; Growth Percent (NCI-H226): 105.6% and 105.63%; Growth Percent (MDA-MB-231/ATCC): 99.1% and 99.12%; Growth Percent (COLO 205): 114.9% and 114.97%; Growth Percent (NCI-H522): 94.1% and 94.19%; Growth Percent (RXF 393): 108.5% and 108.58%; Growth Percent (OVCAR-8): 105.9% and 105.93%; Growth Percent (MOLT-4): 102.4% and 102.48%; Growth Percent (HS 578T): 93.9% and 93.91%; Growth Percent (HCT-116): 107.2% and 107.24%; Growth Percent (CCRF-CEM): 107.8% and 107.81%; Growth Percent (SF-295): 93.7% and 93.78%; Growth Percent (SF-539): 71.5% and 71.52%; inhibition at 10 µM (SF-539; Homo sapiens, CNS SF-539, 10 μM): 28.5%; Growth Percent (SN12C): 104.6% and 104.65%; Growth Percent (SR): 103.3% and 103.37%; Growth Percent (NCI-H322M): 105.0% and 105.06%"
